This note sets out measurements from patent US10980889B1 (Revolution Medicines, Inc., priority 2018, dated 2021).

The test system of experiment [1] is P-P70S6K (T389). As to the kind of experiment: Cell based AlphaLISA assay, inhibition of P-P70S6K (T389) in MDA-MB-468 cells (mTORC1 substrate). The settings on record: AlphaLisa, two to four hours at 37° C.; for IC50: Homo sapiens, 4 h, read-out: pIC50 for Inhibition of mTORC1 and mTORC2 Substrate Phosphorylation p-P70S6K-(T389) (converted). On the procedure:
(§1) Cell Based AlphaLISA Assays For Determining IC50 For Inhibition of P-Akt (S473), P-4E-BP1(T37/46), and P-P70S6K (T389) in MDA-MB-468 Cells
(§2) mTOR Kinase Cellular Assay
(§3) To measure functional activity of mTORC1 and mTORC2 in cells the phosphorylation of 4EBPT (Thr37/46) and P70S6K (Thr389), and AKT1/2/3 (Ser473) was monitored using AlphaLisa SureFire Ultra Kits (Perkin Elmer). […] Incubations were terminated by removal of the assay buffer and addition of lysis buffer provided with the assay kit. Samples were processed according to the manufacturer's instructions. The Alpha signal from the respective phosphoproteinswas measured in duplicate using a microplate reader (Envision, Perkin-Elmer or Spectramax M5, Molecular Devices). Inhibitor concentration response curves were analyzed using normalized IC50 regression curve filling with control based normalization.
(Bead proximity is the source of the signal in Alpha formats.)

In experiment [2] the test system is P-4E-BP1 (T37/46). As to the kind of experiment: Cell based AlphaLISA assay, inhibition of P-4E-BP1 (T37/46) in MDA-MB-468 cells (mTORC1 substrate). To be noted: AlphaLisa, two to four hours at 37° C.; for IC50: Homo sapiens, 4 h, read-out: pIC50 for Inhibition of mTORC1 and mTORC2 Substrate Phosphorylation P-4E-BP1-(T37/46) (converted). On the procedure:
as §1, §2, §3

Experiment [3] deals with P-Akt (S473). As to the kind of experiment: Cell based AlphaLISA assay, inhibition of P-Akt (S473) in MDA-MB-468 cells (mTORC2 substrate). The settings on record: AlphaLisa, two to four hours at 37° C.; for IC50: Homo sapiens, 4 h, read-out: pIC50 for Inhibition of mTORC1 and mTORC2 Substrate Phosphorylation p-AKT1/2/3-(S473) (converted). How it is done:
as §1, §2, §3

With `CO[C@H]1C[C@@H]2CC[C@@H](C)[C@@](O)(O2)C(=O)C(=O)N2CCCC[C@H]2C(=O)O[C@H]([C@H](C)C[C@@H]2CC[C@@H](OC(=O)NCc3cnc(N4CCN(CCOCCN5CCN(c6ncc(C(=O)N7CCc8cc(Cn9nc(-c%10ccc%11[nH]ccc%11c%10)c%10c(N)ncnc%109)ccc8C7)cn6)CC5)CC4)nc3)[C@H](OC)C2)CC(=O)[C@H](C)/C=C(\C)[C@@H](O)[C@@H](OC)C(=O)[C@H](C)C[C@H](C)/C=C/C=C/C=C/1C` [Example 130], the IC50 is below 1 nM in experiment [1], below 3.16 nM in experiment [2] and above 1000 nM in experiment [3].
Taken in the same sequence, the figures for `CO[C@H]1C[C@@H]2CC[C@@H](C)[C@@](O)(O2)C(=O)C(=O)N2CCCC[C@H]2C(=O)O[C@H]([C@H](C)C[C@@H]2CC[C@@H](OC(=O)NCc3cnc(N4CCN(C(=O)CCOCCN5CCN(c6ncc(C(=O)NCCCCn7nc(-c8ccc9oc(N)nc9c8)c8c(N)ncnc87)cn6)CC5)CC4)nc3)[C@H](OC)C2)CC(=O)[C@H](C)/C=C(\C)[C@@H](O)[C@@H](OC)C(=O)[C@H](C)C[C@H](C)/C=C/C=C/C=C/1C` [Example 112] were below 1 nM, above 1000 nM and above 1000 nM.
As to `CO[C@H]1C[C@@H]2CC[C@@H](C)[C@@](O)(O2)C(=O)C(=O)N2CCCC[C@H]2C(=O)O[C@H]([C@H](C)C[C@@H]2CC[C@@H](OC(=O)NCc3cnc(N4CCN(c5ncc(C(=O)NCCOCCOCCOCCOCCC(=O)N6CCc7cc(Cn8nc(-c9cnc%10[nH]ccc%10c9)c9c(N)ncnc98)ccc7C6)cn5)CC4CO)nc3)[C@H](OC)C2)CC(=O)[C@H](C)/C=C(\C)[C@@H](O)[C@@H](OC)C(=O)[C@H](C)C[C@H](C)/C=C/C=C/C=C/1C` (stereo partly drawn) [Example 86], the results for the IC50 in experiment [1], in experiment [2] and in experiment [3] were below 1 nM, below 3.16 nM and 3.16 to 31.6 nM, respectively.
With `CO[C@H]1C[C@@H]2CC[C@@H](C)[C@@](O)(O2)C(=O)C(=O)N2CCCC[C@H]2C(=O)O[C@H]([C@H](C)C[C@@H]2CC[C@@H](OC(=O)NCc3cnc(N4CCN(c5ncc(C(=O)N6CCN(c7ncc(C(=O)NCCCCn8nc(-c9ccc%10oc(N)nc%10c9)c9c(N)ncnc98)cn7)CC6)cn5)CC4)nc3)[C@H](OC)C2)CC(=O)[C@H](C)/C=C(\C)[C@@H](O)[C@@H](OC)C(=O)[C@H](C)C[C@H](C)/C=C/C=C/C=C/1C` [Example 138], the IC50 is below 1 nM in experiment [1], below 3.16 nM in experiment [2] and below 3.16 nM in experiment [3].
Consider `CO[C@H]1C[C@@H]2CC[C@@H](C)[C@@](O)(O2)C(=O)C(=O)N2CCCC[C@H]2C(=O)O[C@H]([C@H](C)C[C@@H]2CC[C@@H](OC(=S)NCc3cnc(N4CCN(C(=O)CCOCCN5CCN(c6ncc(C(=O)N7CCc8cc(Cn9nc(-c%10ccc%11oc(N)nc%11c%10)c%10c(N)ncnc%109)ccc8C7)cn6)CC5)CC4)nc3)[C@H](OC)C2)C[C@@H](OC)[C@H](C)/C=C(\C)[C@@H](O)[C@@H](OC)C(=O)[C@H](C)C[C@H](C)/C=C/C=C/C=C/1C` [Example 121], for which the IC50 was below 1 nM in experiment [1], below 3.16 nM in experiment [2] and above 1000 nM in experiment [3].
Take `CO[C@H]1C[C@@H]2CC[C@@H](C)[C@@](O)(O2)C(=O)C(=O)N2CCCC[C@H]2C(=O)O[C@H]([C@H](C)C[C@@H]2CC[C@@H](OC(=O)NCCOCCOCCOCCOCCOCCOCCOCCOCCC(=O)N3CCc4cc(Cn5nc(-c6ccc7oc(N)nc7c6)c6c(N)ncnc65)ccc4C3)[C@H](OC)C2)C[C@@H](O)[C@H](C)/C=C(\C)[C@@H](O)[C@@H](OC)C(=O)[C@H](C)C[C@H](C)/C=C/C=C/C=C/1C` [Example 75]: the “pIC50 for Inhibition of mTORC1 and mTORC2 Substrate Phosphorylation p-P70S6K-(T389)” value in experiment [1] is on record as “+++ (≥9)”. The “pIC50 for Inhibition of mTORC1 and mTORC2 Substrate Phosphorylation P-4E-BP1-(T37/46)” value in experiment [2] was “+++ (≥8.5)”. In addition, the “pIC50 for Inhibition of mTORC1 and mTORC2 Substrate Phosphorylation p-AKT1/2/3-(S473)” value in experiment [3] is recorded as “++ (8.5 > pIC50 ≥ 7.5)”.
Regarding `CO[C@H]1C[C@@H]2CC[C@@H](C)[C@@](O)(O2)C(=O)C(=O)N2CCCC[C@H]2C(=O)O[C@H]([C@H](C)C[C@@H]2CC[C@@H](OC(=O)NCc3cnc(N4CCN(C(=O)CCOCCN5CCN(C(=O)CCC(=O)N6CCc7cc(Cn8nc(-c9ccc%10oc(N)nc%10c9)c9c(N)ncnc98)ccc7C6)CC5)CC4)nc3)[C@H](OC)C2)C[C@@H](O)[C@H](C)/C=C(\C)[C@@H](O)[C@@H](OC)C(=O)[C@H](C)C[C@H](C)/C=C/C=C/C=C/1C` [Example 132], the IC50 in experiment [1] was below 1 nM; in experiment [2] it was below 3.16 nM; in experiment [3] it was 3.16 to 31.6 nM.
The matching figures for `CO[C@H]1C[C@@H]2CC[C@@H](C)[C@@](O)(O2)C(=O)C(=O)N2CCCC[C@H]2C(=O)O[C@H]([C@H](C)C[C@@H]2CC[C@@H](OC(=O)NCc3cnc(N4CCN(c5ncc(C(=O)N6CCN(c7ncc(C(=O)N8CCc9cc(Cn%10nc(-c%11cnc%12[nH]ccc%12c%11)c%11c(N)ncnc%11%10)ccc9C8)cn7)CC6)cn5)CC4)nc3)[C@H](OC)C2)CC(=O)[C@H](C)/C=C(\C)[C@@H](O)[C@@H](OC)C(=O)[C@H](C)C[C@H](C)/C=C/C=C/C=C/1C` [Example 140]: 10 to 1000 nM, 31.6 to 1000 nM and above 1000 nM.
For the compound `CO[C@H]1C[C@@H]2CC[C@@H](C)[C@@](O)(O2)C(=O)C(=O)N2CCCC[C@H]2C(=O)O[C@H]([C@H](C)C[C@@H]2CC[C@@H](OC(=O)NCc3cnc(N4CCN(c5ncc(C(=O)N(C)CCOCCOCCOCCOCCC(=O)N6CCc7cc(Cn8nc(-c9ccc%10oc(N)nc%10c9)c9c(N)ncnc98)ccc7C6)c(N)n5)CC4)nc3)[C@H](OC)C2)C[C@@H](OC)[C@H](C)/C=C(\C)[C@@H](O)[C@@H](OC)C(=O)[C@H](C)C[C@H](C)/C=C/C=C/C=C/1C` [Example 95], the IC50 is below 1 nM in experiment [1], below 3.16 nM in experiment [2] and 3.16 to 31.6 nM in experiment [3].
Take `CO[C@H]1C[C@@H]2CC[C@@H](C)[C@@](O)(O2)C(=O)C(=O)N2CCCC[C@H]2C(=O)O[C@H]([C@H](C)C[C@@H]2CC[C@@H](OC(=O)NCc3cnc(N4CCN(C(=O)CCOCCN5CCN(C(=O)CCC(=O)NCCCCn6nc(-c7cnc8[nH]ccc8c7)c7c(N)ncnc76)CC5)CC4)nc3)[C@H](OC)C2)CC(=O)[C@H](C)/C=C(\C)[C@@H](O)[C@@H](OC)C(=O)[C@H](C)C[C@H](C)/C=C/C=C/C=C/1C` [Example 116]: the results for the IC50 in experiment [1], in experiment [2] and in experiment [3] were below 1 nM, below 3.16 nM and above 1000 nM, respectively.
For `CO[C@H]1C[C@@H]2CC[C@@H](C)[C@@](O)(O2)C(=O)C(=O)N2CCCC[C@H]2C(=O)O[C@H]([C@H](C)C[C@@H]2CC[C@@H](OC(=O)NCCOCCOCCOCCOCCOCCOCCOCCOCC(=O)N3CCc4cc(Cn5nc(-c6ccc7oc(N)nc7c6)c6c(N)ncnc65)ccc4C3)[C@H](OC)C2)C[C@@H](O)[C@H](C)/C=C(\C)[C@@H](O)[C@@H](OC)C(=O)[C@H](C)C[C@H](C)/C=C/C=C/C=C/1C` [Example 28], the results for the IC50 in experiment [1], in experiment [2] and in experiment [3] were below 1 nM, below 3.16 nM and above 1000 nM, respectively.
Taken in the same sequence, the figures for `CO[C@H]1C[C@@H]2CC[C@@H](C)[C@@](O)(O2)C(=O)C(=O)N2CCCC[C@H]2C(=O)O[C@H]([C@H](C)C[C@@H]2CC[C@@H](OC(=O)N3CCc4nc(N5CCN(c6ncc(C(=O)N7CCN(c8ncc(C(=O)N9CCc%10cc(Cn%11nc(-c%12cnc%13[nH]ccc%13c%12)c%12c(N)ncnc%12%11)ccc%10C9)cn8)CC7)cn6)CC5)ncc4C3)[C@H](OC)C2)CC(=O)[C@H](C)/C=C(\C)[C@@H](O)[C@@H](OC)C(=O)[C@H](C)C[C@H](C)/C=C/C=C/C=C/1C` [Example 142] were 1 to 10 nM, above 1000 nM and above 1000 nM.
Turning to `CO[C@H]1C[C@@H]2CC[C@@H](C)[C@@](O)(O2)C(=O)C(=O)N2CCCC[C@H]2C(=O)O[C@H]([C@H](C)C[C@@H]2CC[C@@H](OC(=S)NCCOCCOCCOCCOCCOCCOCCOCCOCCC(=O)N3CCc4cc(Cn5nc(-c6ccc7oc(N)nc7c6)c6c(N)ncnc65)ccc4C3)[C@H](OC)C2)C[C@@H](O)[C@H](C)/C=C(\C)[C@@H](O)[C@@H](OC)C(=O)[C@H](C)C[C@H](C)/C=C/C=C/C=C/1C` [Example 77], the “pIC50 for Inhibition of mTORC1 and mTORC2 Substrate Phosphorylation p-P70S6K-(T389)” value in experiment [1] was “+++ (≥9)”. For the same compound, the “pIC50 for Inhibition of mTORC1 and mTORC2 Substrate Phosphorylation P-4E-BP1-(T37/46)” value in experiment [2] is reported as “++ (8.5 > pIC50 ≥ 7.5)”. Also, the “pIC50 for Inhibition of mTORC1 and mTORC2 Substrate Phosphorylation p-AKT1/2/3-(S473)” value in experiment [3] is recorded as “+ (7.5 > pIC50 ≥ 6.0)”.
As to `CO[C@H]1C[C@@H]2CC[C@@H](C)[C@@](O)(O2)C(=O)C(=O)N2CCCC[C@H]2C(=O)O[C@H]([C@H](C)C[C@@H]2CC[C@@H](OC(=O)NCc3cnc(N4CCN(C(=O)CCOCCN5CCN(c6ncc(C(=O)N7CCc8cc(Cn9nc(-c%10cnc%11[nH]ccc%11c%10)c%10c(N)ncnc%109)ccc8C7)cn6)CC5)[C@@H](C(=O)O)C4)nc3)[C@H](OC)C2)CC(=O)[C@H](C)/C=C(\C)[C@@H](O)[C@@H](OC)C(=O)[C@H](C)C[C@H](C)/C=C/C=C/C=C/1C` [Example 135], the values for the IC50 in experiment [1], in experiment [2] and in experiment [3] were below 1 nM, above 1000 nM and above 1000 nM, respectively.
